Laboratory results published in PubChem BioAssay (NCI).
Several values for one entry are separate records, joined by “and”; a condition that tells them apart may be missing. Equal values may be shown once.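 Five concentrations, 48 hours, 96-well plates. GI50 is the concentration that inhibits growth by half. At the TGI there is no net growth.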

Key:
Test in all cases: NCI anticancer screen, dose series, 48 h
LXFL 529 NSCLC = tested on: LXFL 529 NSCLC
SNB-19 CNS = tested on: SNB-19 CNS
KM12 colon = tested on: KM12 colon
DMS 273 small cell lung = tested on: DMS 273 small cell lung
DMS 114 small cell lung = tested on: DMS 114 small cell lung
SNB-78 CNS = tested on: SNB-78 CNS
HOP-18 NSCLC = tested on: HOP-18 NSCLC
KM20L2 colon = tested on: KM20L2 colon
DLD-1 colon = tested on: DLD-1 colon
SW-620 colon = tested on: SW-620 colon
XF 498 CNS = tested on: XF 498 CNS
M19-MEL melanoma = tested on: M19-MEL melanoma
RXF-631 renal = tested on: RXF-631 renal
T-47D breast = tested on: T-47D breast
MDA-MB-435 = tested on: MDA-MB-435

`C/C(=C(/C)c1cc[n+](C)cc1)c1cc[n+](C)cc1` was tested, and the TGI (LXFL 529 NSCLC) was greater than 75 µM, the TGI (SNB-19 CNS) was greater than 75 µM and the TGI (KM12 colon) was greater than 75 µM. For the same molecule, the TGI (DMS 273 small cell lung) was greater than 75 µM, the TGI (DMS 114 small cell lung) was 50.3 µM and the TGI (SNB-78 CNS) was greater than 75 µM. For the same molecule, the TGI (HOP-18 NSCLC) was greater than 75 µM, the TGI (KM20L2 colon) was greater than 75 µM and the TGI (DLD-1 colon) was greater than 75 µM.

For `C/C(CC(=O)Nc1ccccc1)=N\NC(N)=S`, the TGI (LXFL 529 NSCLC) was greater than 100 µM, the TGI (SW-620 colon) was greater than 100 µM and the TGI (XF 498 CNS) was greater than 100 µM. It also gave a TGI (KM12 colon) greater than 100 µM, a TGI (DMS 273 small cell lung) greater than 100 µM and a TGI (M19-MEL melanoma) greater than 100 µM. The TGI (DMS 114 small cell lung) was greater than 100 µM, the TGI (SNB-78 CNS) was greater than 100 µM and the TGI (KM20L2 colon) was greater than 100 µM. It also gave a TGI (DLD-1 colon) greater than 100 µM.

`O=C(/C=N/O)Nc1ccc(Cl)c(I)c1` gave a TGI (LXFL 529 NSCLC) of 42.1 µM, a TGI (SW-620 colon) greater than 100 µM and a TGI (XF 498 CNS) of 64.8 µM. It also gave a TGI (SNB-19 CNS) of 83.9 µM, a TGI (KM12 colon) of 68.3 µM and a TGI (DMS 273 small cell lung) of 41.9 µM. The TGI (M19-MEL melanoma) was 60.9 µM, the TGI (DMS 114 small cell lung) was 50 µM and the TGI (KM20L2 colon) was greater than 100 µM. The TGI (DLD-1 colon) was greater than 100 µM.

With `OCCSCC/C(=N\N=C(/CCSCCO)c1ccccc1)c1ccccc1` the TGI (LXFL 529 NSCLC) was greater than 100 µM, the TGI (SW-620 colon) was greater than 100 µM and the TGI (XF 498 CNS) was greater than 100 µM. The TGI (SNB-19 CNS) was greater than 100 µM, the TGI (KM12 colon) was greater than 100 µM and the TGI (M19-MEL melanoma) was greater than 100 µM. It also gave a TGI (DMS 114 small cell lung) greater than 100 µM, a TGI (SNB-78 CNS) greater than 100 µM and a TGI (HOP-18 NSCLC) greater than 100 µM. It also gave a TGI (RXF-631 renal) greater than 100 µM, a TGI (KM20L2 colon) greater than 100 µM and a TGI (DLD-1 colon) greater than 100 µM.

Molecule `CC(=O)OC1CC2C(C)(C)OC(=O)CC(OC(C)=O)[C@]2(C)C2CCC3(C)C(=CCC3c3ccoc3)[C@]12C` (some centres not stated) has a TGI (LXFL 529 NSCLC) greater than 100 µM, a TGI (SW-620 colon) greater than 100 µM and a TGI (XF 498 CNS) of 36 µM. For the same molecule, the TGI (SNB-19 CNS) was greater than 100 µM, the TGI (KM12 colon) was greater than 100 µM and the TGI (DMS 273 small cell lung) was 41.1 µM. It also gave a TGI (M19-MEL melanoma) of 52.3 µM, a TGI (DMS 114 small cell lung) of 96.4 µM and a TGI (SNB-78 CNS) greater than 100 µM. For the same molecule, the TGI (KM20L2 colon) was greater than 100 µM and the TGI (DLD-1 colon) was 31.3 µM.

With `CN(C)c1cccc(/C=C(\C#N)c2ccccc2)c1` the TGI (T-47D breast) was 86.5 µM, the TGI (SW-620 colon) was greater than 56 µM and the TGI (SNB-19 CNS) was greater than 53.8 µM. It also gave a TGI (KM12 colon) of 8.92 µM and a TGI (MDA-MB-435) of 0.18 µM.

For `CCOC(=O)CON=c1c2ccccc2ccc2ccccc12`, the TGI (T-47D breast) was greater than 100 µM, the TGI (SW-620 colon) was greater than 100 µM and the TGI (SNB-19 CNS) was greater than 100 µM. It also gave a TGI (KM12 colon) greater than 100 µM and a TGI (MDA-MB-435) greater than 100 µM.

`Cc1ncc([N+](=O)[O-])n1CCNC(=O)Cn1ccnc1[N+](=O)[O-]` showed a TGI (T-47D breast) greater than 100 µM, a TGI (SW-620 colon) greater than 100 µM and a TGI (SNB-19 CNS) greater than 100 µM. The TGI (KM12 colon) was greater than 100 µM and the TGI (MDA-MB-435) was greater than 100 µM.

With `N#Cc1nc(-c2ccc(-c3nc(C#N)c(N)o3)cc2)oc1N` the TGI (T-47D breast) was greater than 10 µM, the TGI (SW-620 colon) was greater than 10 µM and the TGI (SNB-19 CNS) was greater than 10 µM. It also gave a TGI (KM12 colon) greater than 10 µM and a TGI (MDA-MB-435) greater than 10 µM.

For `O=c1[nH]cc(COCC(O)CO)c(=O)[nH]1` (configuration not stated), the TGI (LXFL 529 NSCLC) was greater than 100 µM, the TGI (SW-620 colon) was greater than 100 µM and the TGI (XF 498 CNS) was greater than 100 µM. It also gave a TGI (SNB-19 CNS) greater than 100 µM, a TGI (KM12 colon) greater than 100 µM and a TGI (DMS 273 small cell lung) greater than 100 µM. For the same molecule, the TGI (M19-MEL melanoma) was greater than 100 µM, the TGI (DMS 114 small cell lung) was greater than 100 µM and the TGI (SNB-78 CNS) was greater than 100 µM. For the same molecule, the TGI (HOP-18 NSCLC) was greater than 100 µM, the TGI (RXF-631 renal) was greater than 100 µM and the TGI (KM20L2 colon) was greater than 100 µM. The TGI (DLD-1 colon) was greater than 100 µM.

`COc1ccc2c(c1)C1c3ccccc3CCN1CCC2` (configuration not stated) gave a TGI (T-47D breast) greater than 100 µM, a TGI (SW-620 colon) greater than 100 µM and a TGI (SNB-19 CNS) greater than 100 µM. For the same molecule, the TGI (KM12 colon) was greater than 100 µM and the TGI (MDA-MB-435) was 51.1 µM.

For `C=CCN1C(=O)/C(=C/c2ccc(OC)cc2)N=C1SC1OC(COC(C)=O)C(OC(C)=O)C(OC(C)=O)C1OC(C)=O` (configuration not stated), the TGI (T-47D breast) was 67.5 µM, the TGI (SW-620 colon) was greater than 100 µM and the TGI (SNB-19 CNS) was greater than 100 µM. For the same molecule, the GI50 (KM12 colon) was 21.4 µM and > 100 µM, the TGI (KM12 colon) was 62.5 µM and > 100 µM and the GI50 (MDA-MB-435) was 18.6 µM and > 100 µM. For the same molecule, the TGI (MDA-MB-435) was 46.5 µM and > 100 µM.

`CNc1cccc2c1C(C)C[C@]1(C)C(=O)Nc3ccccc3[C@H]21` (some centres not stated) showed a TGI (T-47D breast) greater than 100 µM, a TGI (SW-620 colon) greater than 100 µM and a TGI (SNB-19 CNS) of 54 µM. The TGI (KM12 colon) was 87.1 µM and the TGI (MDA-MB-435) was 53.4 µM.

`COc1cc(/C=C2\C(=O)N(c3ccc(NC(C)=O)cc3)C(c3ccccc3)S2(=O)=O)cc(OC)c1OC` (configuration not stated) gave a TGI (T-47D breast) greater than 100 µM, a TGI (SW-620 colon) greater than 100 µM and a TGI (SNB-19 CNS) greater than 100 µM. It also gave a TGI (KM12 colon) greater than 100 µM and a TGI (MDA-MB-435) greater than 100 µM.

Work on `O=C1OC(C2Cc3ccc4c(c3C2=O)CCCC4)c2ccccc21` (configuration not stated) yielded a TGI (T-47D breast) greater than 100 µM, a TGI (SW-620 colon) greater than 100 µM and a TGI (SNB-19 CNS) greater than 100 µM. For the same molecule, the TGI (KM12 colon) was greater than 100 µM and the TGI (MDA-MB-435) was greater than 100 µM.
